# According to patent US9334259B2, “Aryloxyacetamide compound and pesticide” (Nippon Soda Co., Ltd., priority 2012, dated 2016):
# Tested on: acaricide-resistant adult female Aculops pelekassi
# Assay: Efficacy test against Aculops pelekassi (mandarin orange leaf)
# Assay type: in vivo
# Conditions: 125 ppm emulsion sprayed
# Description: Twenty acaricide-resistant adult female Aculops pelekassi acarus were inoculated onto a mandarin orange leaf placed in a Petri dish. Next, an emulsion was prepared having the formula indicated in the aforementioned Preparation example 2. This emulsion was diluted with water to a compound concentration of 125 ppm after which the diluted liquids were sprayed onto the mandarin orange leaf with a rotary spraying tower. The mandarin orange leaf was then placed in a temperature-controlled room at a temperature of 25° C. and a humidity of 65%. The life and death of the adult insects were investigated 3 days after the spraying. The development from eggs laid to adult was investigated 10 days after the spraying.
smiles,measurement,setting,value
CCC(Oc1cc(Br)c(Cl)c(Br)c1)C(=O)NC(C)(C)c1ncccn1 (centres unmarked) [Compound No. 1-14],insect mortality rate after 3 days,3 days after spraying,≥ 90%
same,insect mortality rate after 10 days,10 days after spraying,≥ 90%
